SMILES strings stand for the structures.

The assay is described as follows: Inhibition of VCAM-1 in human endothelial cells.
As usually defined, the IC50 is the midpoint of a concentration-inhibition curve. Lower therefore signals greater potency in that assay. `CCOC(=O)c1cccc(Oc2cncc3sc(C(N)=O)cc23)c1` [3-(2-Carbamoyl-thieno[2,3-c]pyridin-4-yloxy)-benzoic acid ethyl ester] yielded an IC50 above 1 µM.

For `NC(=O)c1cc2c(Oc3ccc(Cl)cc3Br)cncc2s1` [4-(2-Bromo-4-chloro-phenoxy)-thieno[2,3-c]pyridine-2-carboxylic acid amide], the IC50 worked out at 0.33 µM.

As for `CCOC(=O)c1ccc(Oc2cncc3sc(C(N)=O)cc23)cc1` [4-(2-Carbamoyl-thieno[2,3-c]pyridin-4-yloxy)-benzoic acid ethyl ester], the IC50 is above 1 µM.

Take `NC(=O)c1cc2c(Oc3cccc(Br)c3)cncc2s1` [4-(3-Bromo-phenoxy)-thieno[2,3-c]pyridine-2-carboxylic acid amide]: the IC50 is above 1 µM. As for `NC(=O)c1cc2c(Oc3cccc(C(F)(F)F)c3)cncc2s1` [4-(3-Trifluoromethyl-phenoxy)-thieno[2,3-c]pyridine-2-carboxylic acid amide], the figure is above 1 µM.

As to `NC(=O)c1cc2c(Oc3ccc(N)cc3)cncc2s1` [4-(4-Amino-phenoxy)-thieno[2,3-c]pyridine-2-carboxylic acid amide], it took 0.064 µM to reach half-maximal inhibition (IC50). Turning to `Cc1cc(Cl)ccc1Oc1cncc2sc(C(N)=O)cc12` [4-(4-Chloro-2-methyl-phenoxy)-thieno[2,3-c]pyridine-2-carboxylic acid amide], the IC50 is above 1 µM. As for `NC(=O)c1cc2c(Oc3ccc(Cl)c(F)c3)cncc2s1` [4-(4-Chloro-3-fluoro-phenoxy)-thieno[2,3-c]pyridine-2-carboxylic acid amide], the figure is above 1 µM. As for `CNC(=O)c1cc2c(Oc3ccc(-n4ccnc4)cc3)cncc2s1` [4-(4-Imidazol-1-yl-phenoxy)-thieno[2,3-c]pyridine-2-carboxylic acid methylamide], the figure is 0.019 µM; as for `NC(=O)c1cc2c(Oc3ccc(I)cc3)cncc2s1` [4-(4-Iodo-phenoxy)-thieno[2,3-c]pyridine-2-carboxylic acid amide], above 0.01 µM; as for `CC(C)c1ccc(Oc2cncc3sc(C(N)=O)cc23)cc1` [4-(4-Isopropyl-phenoxy)-thieno[2,3-c]pyridine-2-carboxylic acid amide], above 0.1 µM. As for `COCc1ccc(Oc2cncc3sc(C(N)=O)cc23)cc1` [4-(4-Methoxymethyl-phenoxy)-thieno[2,3-c]pyridine-2-carboxylic acid amide], the figure is 0.023 µM; as for `CNC(=O)c1cc2c(Oc3ccc(COC)cc3)cncc2s1` [4-(4-Methoxymethyl-phenoxy)-thieno[2,3-c]pyridine-2-carboxylic acid methylamide], above 0.024 µM. Take `CNC(=O)c1cc2c(Oc3ccc(N4CCOCC4)cc3)cncc2s1` [4-(4-Morpholin-4-yl-phenoxy)-thieno[2,3-c]pyridine-2-carboxylic acid methylamide]: the IC50 is above 1 µM. In turn, `CNC(=O)c1cc2c(Oc3ccc(-n4cncn4)cc3)cncc2s1` [4-(4-[1,2,4]Triazol-1-yl-phenoxy)-thieno[2,3-c]pyridine-2-carboxylic acid methylamide] displayed a half-maximal inhibitory concentration (IC50) of 0.24 µM. `CNC(=O)c1cc2c(Oc3ccc(C=CC(=O)NCCc4cnc[nH]4)cc3)cncc2s1` [4-(4-{2-[2-(1H-Imidazol-4-yl)-ethylcarbamoyl]-vinyl}-phenoxy)-thieno[2,3-c]pyridine-2-carboxylic acid methylamide] returned an IC50 above 1 µM. As for `CCOCCOCCOCC(F)(F)c1ccc(Oc2cncc3sc(C(=O)NC)cc23)cc1` [4-(4-{2-[2-(2-Ethoxy-ethoxy)-ethoxy]-1,1-difluoro-ethyl}-phenoxy)-thieno[2,3-c]pyridine-2-carboxylic acid methylamide], the figure is 0.17 µM; as for `CNC(=O)c1cc2c(Oc3ccc(-c4ccccc4)cc3)cncc2s1` [4-(Biphenyl-4-yloxy)-thieno[2,3-c]pyridine-2-carboxylic acid methylamide], 0.079 µM; as for `NC(=O)c1cc2c(Oc3ccc(C(O)CO)cc3)cncc2s1` (configuration not stated) [4-[4-(1,2-Dihydroxy-ethyl)-phenoxy]-thieno[2,3-c]pyridine-2-carboxylic acid amide], 0.93 µM. In the case of `NC(=O)c1cc2c(Oc3ccc(C(=O)N(C(=O)NC4CCCCC4)C4CCCCC4)cc3)cncc2s1` [4-[4-(1,3-Dicyclohexyl-ureidocarbonyl)-phenoxy]-thieno[2,3-c]pyridine-2-carboxylic acid amide] it was above 1 µM; in that of `CNC(=O)c1cc2c(Oc3ccc(-c4nnn[nH]4)cc3)cncc2s1` [4-[4-(1H-Tetrazol-5-yl)-phenoxy]-thieno[2,3-c]pyridine-2-carboxylic acid methylamide], above 1 µM. As for `COCCOCc1ccc(Oc2cncc3sc(C(N)=O)cc23)cc1` [4-[4-(2-Methoxy-ethoxymethyl)-phenoxy]-thieno[2,3-c]pyridine-2-carboxylic acid amide], the figure is above 1 µM; as for `CNC(=O)c1cc2c(Oc3ccc(COCCOC)cc3)cncc2s1` [4-[4-(2-Methoxy-ethoxymethyl)-phenoxy]-thieno[2,3-c]pyridine-2-carboxylic acid methylamide], above 1 µM; as for `NC(=O)c1cc2c(Oc3ccc(C(=O)NCCN4CCOCC4)cc3)cncc2s1` [4-[4-(2-Morpholin-4-yl-ethylcarbamoyl)-phenoxy]-thieno[2,3-c]pyridine-2-carboxylic acid amide], above 1 µM. For `CNC(=O)c1cc2c(Oc3ccc(C(=O)NCCN4CCOCC4)cc3)cncc2s1` [4-[4-(2-Morpholin-4-yl-ethylcarbamoyl)-phenoxy]-thieno[2,3-c]pyridine-2-carboxylic acid methylamide], the IC50 is above 1 µM. As for `NC(=O)c1cc2c(Oc3ccc(/C=C/C(=O)NCCN(CCO)CCO)cc3)cncc2s1` [4-[4-(2-{2-[Bis-(2-hydroxy-ethyl)-amino]-ethylcarbamoyl}-vinyl)-phenoxy]-thieno[2,3-c]pyridine-2-carboxylic acid amide], the figure is above 1 µM. In the case of `CNC(=O)c1cc2c(Oc3ccc(/C=C/C(=O)NCCN(CCO)CCO)cc3)cncc2s1` [4-[4-(2-{2-[Bis-(2-hydroxy-ethyl)-amino]-ethylcarbamoyl}-vinyl)-phenoxy]-thieno[2,3-c]pyridine-2-carboxylic acid methylamide] it was above 1 µM; in that of `CNC(=O)c1cc2c(Oc3ccc(-c4cncn4C)cc3)cncc2s1` [4-[4-(3-Methyl-3H-imidazol-4-yl)-phenoxy]-thieno[2,3-c]pyridine-2-carboxylic acid methylamide], above 0.18 µM; in that of `CNC(=O)c1cc2c(Oc3ccc(-c4noc(C(F)(F)F)n4)cc3)cncc2s1` [4-[4-(5-Trifluoromethyl-[1,2,4]oxadiazol-3-yl)-phenoxy]-thieno[2,3-c]pyridine-2-carboxylic acid methylamide], above 1 µM. On to `NC(=O)c1cc2c(Oc3ccc(C(=O)N4CCOCC4)cc3)cncc2s1` [4-[4-(Morpholine-4-carbonyl)-phenoxy]-thieno[2,3-c]pyridine-2-carboxylic acid amide], for which the IC50 is above 1 µM. Compound `CNC(=O)c1cc2c(Oc3ccc(C(=N)NO)cc3)cncc2s1` [4-[4-(N-Hydroxycarbamimidoyl)-phenoxy]-thieno[2,3-c]pyridine-2-carboxylic acid methylamide] returned an IC50 above 1 µM. In the case of `NC(=O)c1cc2c(Oc3ccc(COC4CCCCO4)cc3)cncc2s1` (configuration not stated) [4-[4-(Tetrahydro-pyran-2-yloxymethyl)-phenoxy]-thieno[2,3-c]pyridine-2-carboxylic acid amide] it was above 1 µM; in that of `Cc1ccc(Oc2cncc3sc(C(N)=O)cc23)cc1` [4-p-Tolyloxy-thieno[2,3-c]pyridine-2-carboxylic acid amide], 11 µM.

Regarding `NC(=O)c1cc2c(Oc3ccc(/C=C/C(=O)NCC(O)CO)cc3)cncc2s1` (configuration not stated) [4-{4-[2-(2,3-Dihydroxy-propylcarbamoyl)-vinyl]-phenoxy}-thieno[2,3-c]pyridine-2-carboxylic acid amide], the 50% inhibitory concentration (IC50) was above 1 µM. In the case of `CNC(=O)c1cc2c(Oc3ccc(/C=C/C(=O)NCC(O)CO)cc3)cncc2s1` (configuration not stated) [4-{4-[2-(2,3-Dihydroxy-propylcarbamoyl)-vinyl]-phenoxy}-thieno[2,3-c]pyridine-2-carboxylic acid methylamide] it was above 1 µM. Compound `NC(=O)c1cc2c(Oc3ccc(/C=C/C(=O)NCCN4CCOCC4)cc3)cncc2s1` [4-{4-[2-(2-Morpholin-4-yl-ethylcarbamoyl)-vinyl]-phenoxy}-thieno[2,3-c]pyridine-2-carboxylic acid amide] registered an IC50 above 1 µM. As for `CNC(=O)c1cc2c(Oc3ccc(/C=C/C(=O)NCCN4CCOCC4)cc3)cncc2s1` [4-{4-[2-(2-Morpholin-4-yl-ethylcarbamoyl)-vinyl]-phenoxy}-thieno[2,3-c]pyridine-2-carboxylic acid methylamide], the figure is above 1 µM.

The values are drawn from BindingDB's records for doi:10.1021/jm0101702 (Abbott Laboratories, 2001).
